Laboratory results: US20230064034A1, “LIGHT STABLE LIQUID DISINFECTANT COMPOSITIONS” (Onyx Lotus, LLC, priority 2021, published 2023)

Test system: E. coli
Experiment: Durability test: wiped aluminum coupons, surface tested for E. coli by ASTM E-2315
Assay type: cell-based, Escherichia coli
Details: aluminum coupon wiped 40 times
Method: The durability test was designed to identify the number of times a surface can be wiped under pressure and prevent growth of pathogens on the surface after the light stable disinfectant was applied. The liquid composition contains 100 mL distilled water, 1.25 g EDTA, 0.01 g silver nitrate, and 0.5 g PVP K-30 having a 100 ppm concentration of silver. Five test solutions were evaluated: 10 mL liquid disinfectant composition, sodium hypochlorite, […] (peracetic acid), and Lysol. This 100 ppm solution of silver solution was loaded into a sprayer and sprayed onto 1×1'' sterilized aluminum or stainless-steel coupons. The aluminum coupons were wiped with a sterilized non-scratch scouring sponge or a soft cloth with a 1 kg weight on top of the non-scratch scouring sponge or a soft cloth then autoclaved. After the aluminum coupons had cooled to room temperature, the test solutions were sprayed onto the coupons. […]

OCl [Sodium hypochlorite]
reduction: 0%
